Results on three molecules are retold here after patent publication US10548894B2, “Combination therapy” (Array BioPharma Inc., priority 2013, dated 2020).

The structures appear in SMILES notation.

Series [1] is described as follows: Clinical dose finding and tolerability (RP2D/MTD) in patients. It is filed as in vivo. To be noted: for MTD: QD. From the text:
The selection of the starting dose follows the ICH S9 guidelines for choosing a starting a dose for a first-in-human trial conducted in patients with cancer, and is shown in Table 6-2.
Table 3 describes the starting doses and the provisional dose levels of study treatments for the combinations that may be evaluated during this trial. Additional dose levels not currently specified may be enrolled and additional patients may be enrolled at a dose level already tested if such changes are deemed necessary to provide optimal safety and tolerability, pharmacokinetic, and pharmacodynamic data.

The subject of series [2] is HMEX1906 primary melanoma model (HMEX1906-R5). Description: Efficacy in HMEX1906-R5 primary melanoma model resistant to Compound of Formula (I). It is filed as in vivo. To be noted: PO; Compound C 250 mg/kg qd×21; Compound of Formula (I) 5 mg/kg bid×21. How it is done:
Objective: To evaluate the efficacy of the combination of the Compound of Formula (I) and the CDK 4 inhibitor Compound C in the HMEX1906 primary melanoma model that is grown in the presence of and is resistant to 5 mg/kg the Compound of Formula (I) (HMEX1906-R5)
Drug formulation: Compound C is formulated in 0.5% MC/0.5% Tween80 and the Compound of Formula (I) is formulated in 20% PEG300/3% ETPGS.
Tumors are chopped/minced into cell line like suspension (tumors homogenized). 7 mL of matrigel added and 1.5 mL of HBSS. Suspension warmed in palm until Matrigel is thick and implanted with a 18G needle s.c right flank of female nude mice.
The mice were assigned to the following groups at 18 days post implant with an average tumor volume of 266 mm^3 and average body weight of 25 grams.
Groups: 10 mice/group, route PO, dose volume 0.2 mL
Group 1: Vehicle, 0 mg/kg bid×14
Group 2: Compound C, 250 mg/kg qd×21
Group 3: Compound of Formula (I), 5 mg/kg bid×21
Group 4: Compound C 250 mg/kg qd×21+Compound of Formula (I) 5 mg/kg bid×21

Another series concerns COLO 741. Briefly: xCELLigence real-time impedance growth assay. The conditions noted are these: COLO 741, absence of FGF2; Formula (I) 500 nM, Compound H 1 uM. It is filed as cell-based. How it is done:
(§1) Shown is the growth in real time of the (Top A) COLO 741 and (Bottom B) SK-MEL-5 cell lines as measured using the xCELLigence impedance-based cell analyzer as discussed in Example 5. Where indicated FGF2 and Compound H were supplemented to the media at concentrations of 100 ng/ml, and 1 uM, respectively. The Compound of Formula (I) was used at 500 nM in (A) and 100 nM (B).
(§2) For CellTiter-Glo™ assays, cells were dispensed into tissue culture treated 96-well plates (Costar, catalog number 3904) with a final volume of 80 μL of medium and at density of 3000 cells per well. 12 to 24 hrs after plating, 20 μL of each compound dilution series were transferred to plates containing the cells, resulting in compound concentration ranges of 2700 nM to 3.7 nM by 3-fold dilutions and a final DMSO concentration of 0.16%. The total volume in each well was […]. Plates were incubated for 72 hrs and the effects of compounds on cell proliferation was determined using the CellTiter-Glo™ Luminescent Cell Viability Assay (CTG, Promega) and a Victor™ X4 plate reader (Perkin Elmer). For real-time growth assays cells were seeded into xCELLigence E-plates (Roche catalogue number 05232368001) at a density of 4000 cells per well in a total of 90 μl of media and 24 hrs after plating, 11 μl of media with or without compound was added to the wells. 2-4 replicate wells were plated for all cell lines and treatment groups with the exception of LGX818+FGF2 treated COLO 741 cells (N=1). Where indicated final concentrations of compounds and growth factor were 1 uM for Compound H, 100 ng/ml for FGF2, and either 100 nM (SK-MEL-5) or 500 nM (COLO 741) for the Compound of Formula (I). Cells were continuously monitored every two hours for seven days with the xCELLigence real-time impedance based cell analyzer. Impedance was measured using the electrodes on the E-plates, with increasing surface area coverage of cells creating greater electrode impedance. […] In all cases cell index values were normalized to a timepoint immediately following the addition of compound.
(§3) To determine whether rescue of BRAFV600E melanoma cell lines by FGF2 was dependent on FGFR signaling, we examined whether the selective FGFR inhibitor Compound H could prevent FGF2-mediated rescue. Two cell lines which were rescued to varying degrees by FGF2 (COLO 741, and SK-MEL-5, Table 8-1) were cultured in media containing the Compound of Formula (I) and FGF2 either in the presence or absence of Compound H and growth measured in real time.

In another series the test system is SK-MEL-5. Briefly: xCELLigence real-time impedance growth assay. To be noted: SK-MEL-5, absence of FGF2; Formula (I) 100 nM, Compound H 1 uM. It is filed as cell-based. Here is the method:
as §1, §2, §3

Series [3] deals with MAPK and PIK3C signaling in COLO 741 cells. Description: Western analysis of phosphorylated MEK1/2, ERK1/2 and AKT. The series is classed as cell-based. To be noted: COLO 741, 2 and 24 hours, no FGF2; Formula (I) 100 nM, Compound H 1.0 uM. How it is done:
(§4) FIG. 4—The effect on signaling of combining the Compound of Formula (I) with the FGFR inhibitor Compound H and the FGFR ligand FGF2 in two BRAFV600E mutant melanoma-derived cell lines in vitro. Shown is western analysis of both phosphorylated and total AKT, ERK1/2, and MEK1/2 proteins isolated from (A) […] and (B) SK-MEL-5 cells following treatment with the Compound of Formula (I) (100 nM), FGF2 (100 ng/ml), and Compound H (1 uM). Cells were treated for 2 and 24 hours with agents singly and in combination as discussed in Example 5.
(§5) For Western analysis, cells were plated in 6-well (Costar, catalog number 3506) plates at a density of 5×10^5 cells per well in 2.0 ml of complete culture medium. Twelve to 24 hrs after plating, cells were treated with the various compounds, and in all experiments the Compound of Formula (I), Compound H, and FGF2 were used at final concentrations of 100 nM, 1.0 uM, and 100 ng/ml, respectively. Cells were harvested 2, and 24 hrs following the addition of compound in freshly prepared cell lysis buffer (Cell Signaling Technology Catalog number 9803); supplemented with both phosphatase (PhosStop, Roche Catalog number 04906845001) and protease inhibitors (Roche, catalog number 11697498001). Proteins from cell lysates were separated by electrophoresis though a NuPAGE 4-12% Bis-Tis midi gel (Novex, catalog number WG1402BX10), transferred to nitrocellulose membranes, which were subsequently incubated with antibodies from Cell Signaling Technology (Danvers, Mass., USA) recognizing p-AKT (S473, Catalog number 4058), total AKT (Catalog number 2920), p-ERK1/2 (T202/Y204, catalog number 9101), total ERK1/2 (catalog number 9107), p-MEK1/2 (S217/221, catalog number 9121) and β-actin (Ambion, catalog number AM4302). Western blots were visualized following incubation with IRDye 680RD Goat anti-Rabbit IgG (Li-Cor, Catalog number 926-68071) and IRDye 800 CW Goat anti-Mouse IgG (Li-Cor, Catalog number 926-32210) and scanning with an Odyssey Infrared Imager System (Li-Cor, Lincoln, Nebr., USA).
(§6) To investigate whether either restored MAPK or activated PIK3C signaling might underlie FGF2-mediated rescue the effects of FGF2 on MAPK and PIK3C signaling were examined via western-blot analysis of phosphorylated MEK1/2 (MAP2K1/2), ERK1/2 (MAPK1/2) and AKT1/2/3.

Series [4] concerns MAPK and PIK3C signaling in SK-MEL-5 cells. Described as above. The series is classed as cell-based. The conditions noted are these: SK-MEL-5, 2 and 24 hours, no FGF2; Formula (I) 100 nM, Compound H 1.0 uM. Here is the method: as §4, §5, §6

Turning to `Nc1cc(C(F)(F)F)c(-c2cc(N3CCOCC3)nc(N3CCOCC3)n2)cn1` [Compound F, 5-(2,6-di-morpholin-4-yl-pyrimidin-4-yl)-4-trifluoromethyl-pyridin-2-ylamine], the MTD in series [1] came to 100 mg.
On to `CN(C)C(=O)c1cc2cnc(Nc3ccc(N4CCNCC4)cn3)nc2n1C1CCCC1` [Compound C], for which, in series [2], the “Mean change of body weight” value is on record as 5.3 ± 1.4 % ± SEM, the “Mean change of tumor volume” value was 86 ± 26 mm3 ± SEM, the “Mean change of tumor volume vs control (T/C)” value is on record as 4% and the “Survival (Survivors/Total)” value is 10/10. Also, the “maximum tolerated dose (MTD)” value in series [1] (currently tested at the 900 mg QD dose level) is listed as “has not been achieved”.
Consider `CCN1CCN(c2ccc(Nc3cc(N(C)C(=O)Nc4c(Cl)c(OC)cc(OC)c4Cl)ncn3)cc2)CC1` [Compound H], for which the “growth in real time (cell index)” value with COLO 741 and in the series on SK-MEL-5 was “did not affect the proliferation” throughout. The “MAPK signaling (phosphorylated MEK and ERK levels)” value in series [3] and in series [4] was “neither FGF2 nor Compound H when added as single agents affected signaling” throughout. Further, the MTD in series [1] amounted to 125 mg.
